Assay results: patent US20140221283A1 (Indiana University Research and Technology Corporation, priority 2011, published 2014)
*1 amine or outer side, *2 acyl side, *3 side chain or, on linkers, in order; H or OH if unused. Where a SMILES comes first, the peptide text is derived from it. Where no end group is shown, it is not given here. Side-chain parts run from the residue outwards. [ ]: non-standard residue; d: D form. The star is where a group is joined. γGlu = O=C(O)[C@H](CCC(=O)[*:2])N[*:1]; Palmitoyl = CCCCCCCCCCCCCCCC(=O)*; Aib = CC(C)(N)C(=O)O

Legend:
[1] = molecular target: human GLP-1R (Homo sapiens, UniProt P43220); assay: firefly luciferase-based cAMP reporter assay, HEK293 cells co-transfected with GLP-1 receptor (Example 3); format: cell-based; set-up: expressed in transfected cells; host or cells: HEK293; conditions: procedure of Example 3
Method: (§1) The ability of each peptide to induce cAMP was measured in a firefly luciferase-based reporter assay.
(§2) At the end of the incubation, 100 μL of LucLite luminescence substrate reagent (Perkin Elmer, Wellesley, Mass.) were added to each well.

[2] = molecular target: T1, GIP receptor (Homo sapiens, UniProt P48546); assay: firefly luciferase-based cAMP reporter assay, HEK293 cells, GIP receptor (Example 3); format: cell-based; conditions: procedure of Example 3
T1 construct: expressed in transfected cells; host or cells: HEK293
T1 sequence (P48546 22-466): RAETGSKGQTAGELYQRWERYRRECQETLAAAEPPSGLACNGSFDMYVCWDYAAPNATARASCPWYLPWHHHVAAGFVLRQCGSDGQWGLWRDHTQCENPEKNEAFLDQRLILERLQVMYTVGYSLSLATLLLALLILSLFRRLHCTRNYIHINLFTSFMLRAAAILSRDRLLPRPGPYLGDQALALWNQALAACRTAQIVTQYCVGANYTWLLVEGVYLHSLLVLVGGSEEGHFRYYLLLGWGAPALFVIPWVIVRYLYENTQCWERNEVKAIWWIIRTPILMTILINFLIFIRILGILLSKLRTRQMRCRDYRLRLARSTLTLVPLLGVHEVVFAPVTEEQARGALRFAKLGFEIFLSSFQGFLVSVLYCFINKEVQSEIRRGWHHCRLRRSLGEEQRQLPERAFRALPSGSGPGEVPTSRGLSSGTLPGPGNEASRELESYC
Method: It is understood that a lower EC50 indicates higher activity or potency at the receptor.
as §1, §2
In some instances, the in vitro agonist activity at the GIP receptor was also tested.

[3] = molecular target: T2, glucagon receptor (Homo sapiens, UniProt P47871); assay: firefly luciferase-based cAMP reporter assay, HEK293 cells co-transfected with glucagon receptor (Example 3); format: cell-based; conditions: procedure of Example 3
T2 construct: expressed in transfected cells; host or cells: HEK293
Method: as §1, §2

[4] = body weight of diet-induced obese (DIO) mice dosed daily for nine days (Example 7); format: in vivo; conditions: Day 9; for body weight reduction: 3 nmol/kg daily; for body weight loss: 9 nmol/kg daily
Method: (§3) Mice were administered a vehicle control or a dose of a peptide daily for nine days. The peptides tested in this study included a peptide of SEQ ID NO: 12, a peptide of SEQ ID NO: 17, a peptide of SEQ ID NO: 18, and a peptide of SEQ ID NO: 19. Doses of each peptide were varied—each of the peptides of SEQ ID NO: 12, 17, and 19 was administered at a dose of either 3 nmol/kg or 9 nmol/kg, while the peptide of SEQ ID NO: 18 was administered at a dose of 1 nmol/kg, 3 nmol/kg, or 9 nmol/kg. Data are expressed as mean±SEM.

[5] = ambient glucose levels of DIO mice dosed daily for nine days (Example 7); format: in vivo; conditions: for decrease in ambient glucose vs. vehicle: by Day 4
Method: as §3
In addition to cumulative body weight change, ambient glucose levels of the DIO mice were measured.

T2 sequence (P47871 26-477): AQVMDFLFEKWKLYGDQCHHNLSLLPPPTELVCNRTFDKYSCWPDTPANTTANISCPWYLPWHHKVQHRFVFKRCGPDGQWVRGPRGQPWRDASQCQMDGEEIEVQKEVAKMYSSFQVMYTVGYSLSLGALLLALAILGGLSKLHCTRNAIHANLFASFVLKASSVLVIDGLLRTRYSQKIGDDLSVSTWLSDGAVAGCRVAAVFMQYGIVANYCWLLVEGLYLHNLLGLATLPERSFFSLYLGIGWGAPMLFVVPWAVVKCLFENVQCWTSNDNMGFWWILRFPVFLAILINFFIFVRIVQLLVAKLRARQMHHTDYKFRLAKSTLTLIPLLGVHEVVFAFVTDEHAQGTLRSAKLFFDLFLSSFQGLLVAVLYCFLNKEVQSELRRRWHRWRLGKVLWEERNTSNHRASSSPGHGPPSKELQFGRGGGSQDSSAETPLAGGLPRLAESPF
human GLP-1R, sequence (P43220 24-463): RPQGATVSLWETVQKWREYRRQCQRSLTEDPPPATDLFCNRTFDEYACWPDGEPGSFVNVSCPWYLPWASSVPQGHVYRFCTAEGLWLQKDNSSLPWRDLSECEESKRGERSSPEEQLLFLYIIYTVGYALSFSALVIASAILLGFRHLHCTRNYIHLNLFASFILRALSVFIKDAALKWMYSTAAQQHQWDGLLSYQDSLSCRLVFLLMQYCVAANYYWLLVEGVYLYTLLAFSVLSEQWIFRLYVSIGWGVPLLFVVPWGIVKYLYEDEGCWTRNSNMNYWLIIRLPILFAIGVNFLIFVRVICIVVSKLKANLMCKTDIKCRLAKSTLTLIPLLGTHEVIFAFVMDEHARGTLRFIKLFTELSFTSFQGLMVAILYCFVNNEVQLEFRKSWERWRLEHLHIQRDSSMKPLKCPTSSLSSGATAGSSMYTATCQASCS

Compound: CCCCCCCCCCCCCCCC(=O)N[C@@H](CCC(=O)N[C@@H](CCC(=O)NCCCC[C@H](NC(=O)[C@H](CC(=O)O)NC(=O)[C@H](CO)NC(=O)[C@@H](NC(=O)[C@H](Cc1ccccc1)NC(=O)[C@@H](NC(=O)CNC(=O)[C@H](CCC(N)=O)NC(=O)C(C)(C)NC(=O)[C@@H](N)Cc1c[nH]cn1)[C@@H](C)O)[C@@H](C)O)C(=O)N[C@@H](CO)C(=O)N[C@@H](CCCCN)C(=O)N[C@@H](Cc1ccc(O)cc1)C(=O)N[C@@H](CC(C)C)C(=O)N[C@@H](CC(=O)O)C(=O)NC(C)(C)C(=O)N[C@@H](CCCNC(=N)N)C(=O)N[C@@H](C)C(=O)N[C@@H](C)C(=O)N[C@@H](CCC(N)=O)C(=O)N[C@@H](CC(=O)O)C(=O)N[C@@H](Cc1ccccc1)C(=O)N[C@H](C(=O)N[C@@H](CCC(N)=O)C(=O)N[C@@H](Cc1c[nH]c2ccccc12)C(=O)N[C@@H](CC(C)C)C(=O)N[C@@H](CC(C)C)C(=O)N[C@@H](CC(=O)O)C(=O)N[C@H](C(=O)N[C@@H](CCCCN)C(=O)N[C@@H](CCC(N)=O)C(=O)O)[C@@H](C)O)C(C)C)C(=O)O)C(=O)O [SEQ ID NO: 16] (H-H[Aib]QGTFTSDK([γGlu-γGlu-Palmitoyl])SKYLD[Aib]RAAQDFVQWLLDTKQ-OH; N-terminus assumed)
- EC50 [1]: 0.019 nM
- EC50 [2]: 1.04 nM
- EC50 [3]: 0.015 nM

Compound: CCCCCCCCCCCCCCCC(=O)N[C@@H](CCC(=O)N[C@@H](CCC(=O)NCCCC[C@H](NC(=O)[C@H](CC(=O)O)NC(=O)[C@H](CO)NC(=O)[C@@H](NC(=O)[C@H](Cc1ccccc1)NC(=O)[C@@H](NC(=O)CNC(=O)[C@H](CCC(N)=O)NC(=O)C(C)(C)NC(=O)[C@@H](N)Cc1c[nH]cn1)[C@@H](C)O)[C@@H](C)O)C(=O)N[C@@H](CO)C(=O)N[C@@H](CCCCN)C(=O)N[C@@H](Cc1ccc(O)cc1)C(=O)N[C@@H](CC(C)C)C(=O)N[C@@H](CC(=O)O)C(=O)NC(C)(C)C(=O)N[C@@H](CCCNC(=N)N)C(=O)N[C@@H](C)C(=O)N[C@@H](C)C(=O)N[C@@H](CCC(N)=O)C(=O)N[C@@H](CC(=O)O)C(=O)N[C@@H](Cc1ccccc1)C(=O)N[C@H](C(=O)N[C@@H](CCC(N)=O)C(=O)N[C@@H](Cc1c[nH]c2ccccc12)C(=O)N[C@@H](CC(C)C)C(=O)N[C@@H](CCSC)C(=O)N[C@@H](CC(=O)O)C(=O)N[C@H](C(=O)N[C@@H](CCCCN)C(=O)N[C@@H](CCC(N)=O)C(=O)O)[C@@H](C)O)C(C)C)C(=O)O)C(=O)O [SEQ ID NO: 12] (H-H[Aib]QGTFTSDK([γGlu-γGlu-Palmitoyl])SKYLD[Aib]RAAQDFVQWLMDTKQ-OH; N-terminus assumed)
- EC50 [1]: 0.003 nM
- EC50 [2]: 12.8 nM
- body weight reduction [4]: ~5.3%
- body weight loss [4]: ~29.8%
- EC50 [3]: 0.01 nM

Compound: SEQ ID NO: 18: peptide of SEQ ID NO: 18 tested in DIO mice; sequence only in the sequence listing (HXQGTFTSDKSKYLDERAAQDFVQWLMDT; not fully specified; Xaa is AIB; Acylated with a C16 fatty acyl group via gamma- Glu-gamma-Glu spacer; C-terminal amidation)
- body weight reduction [4]: ~12.3%
- body weight loss [4]: ~26.8%
- decrease in ambient glucose vs. vehicle ([5]; 3 nmol/kg daily): −29%
- decrease in ambient glucose vs. vehicle ([5]; 9 nmol/kg daily): −29%

Compound: SEQ ID NO: 19: peptide of SEQ ID NO: 19 tested in DIO mice; sequence only in the sequence listing (H[dS]QGTFTSDK([γGlu-Palmitoyl])SKYLDERAAQDFVQWLLDT-NH2; N-terminus assumed; SMILES CCCCCCCCCCCCCCCC(=O)N[C@@H](CCC(=O)NCCCC[C@H](NC(=O)[C@H](CC(=O)O)NC(=O)[C@H](CO)NC(=O)[C@@H](NC(=O)[C@H](Cc1ccccc1)NC(=O)[C@@H](NC(=O)CNC(=O)[C@H](CCC(N)=O)NC(=O)[C@@H](CO)NC(=O)[C@@H](N)Cc1c[nH]cn1)[C@@H](C)O)[C@@H](C)O)C(=O)N[C@@H](CO)C(=O)N[C@@H](CCCCN)C(=O)N[C@@H](Cc1ccc(O)cc1)C(=O)N[C@@H](CC(C)C)C(=O)N[C@@H](CC(=O)O)C(=O)N[C@@H](CCC(=O)O)C(=O)N[C@@H](CCCNC(=N)N)C(=O)N[C@@H](C)C(=O)N[C@@H](C)C(=O)N[C@@H](CCC(N)=O)C(=O)N[C@@H](CC(=O)O)C(=O)N[C@@H](Cc1ccccc1)C(=O)N[C@H](C(=O)N[C@@H](CCC(N)=O)C(=O)N[C@@H](Cc1c[nH]c2ccccc12)C(=O)N[C@@H](CC(C)C)C(=O)N[C@@H](CC(C)C)C(=O)N[C@@H](CC(=O)O)C(=O)N[C@H](C(N)=O)[C@@H](C)O)C(C)C)C(=O)O)
- body weight reduction [4]: ~8.1%
- body weight loss [4]: ~31.5%
- decrease in glucose levels compared to vehicle control mice ([5]; 9 nmol/kg daily, Day 4): ~40%
- decrease in glucose levels compared to vehicle control mice ([5]; 9 nmol/kg daily, Day 7): ~39%
- decrease in glucose levels compared to vehicle control mice ([5]; 9 nmol/kg daily, Day 9): ~26%
